Measured values reported in US8809341B2, “2,4-pyrimidinediamine compounds and uses as anti-proliferative agents” (Rigel Pharmaceuticals, Inc., priority 2003, dated 2014).

Columns and labels:
A549 cells = assay: in vitro antiproliferation assay, A549 (lung); type: cell-based; details: A549 (lung) cells, antiproliferation
Procedure, shortened: (§1)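 Standard in vitro antiproliferation assays on tumour cell lines, including A549 and H1299 (both lung); IC50 values determined.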

H1299 cells = assay: in vitro antiproliferation assay, H1299 (lung); type: cell-based; details: H1299 (lung) cells, antiproliferation
Procedure, shortened: as §1

Compound | IC50 (A549 cells) | IC50 (H1299 cells)
Oc1cccc(Nc2nc(Nc3cccc(-c4ncco4)c3)ncc2F)c1 [compound 885] | ≤ 20 µM | ≤ 20 µM
COc1ccc(Nc2nc(Nc3cccc(-c4ncon4)c3)ncc2F)cc1OC [compound 886] | ≤ 20 µM | ≤ 20 µM
COC(=O)c1cc(Nc2ncc(F)c(Nc3ccc(OC)c(OC)c3)n2)cc(-c2ncco2)c1 [compound 887] | ≤ 20 µM | ≤ 20 µM
CC(=O)c1cc(Nc2ncc(F)c(Nc3cccc(O)c3)n2)cc(-c2ncco2)c1 [compound 888] | ≤ 20 µM | ≤ 20 µM
COc1ccc(Nc2nc(Nc3cc(-c4ncco4)cc(C(F)(F)F)c3)ncc2F)cc1OC [compound 889] | ≤ 20 µM | ≤ 20 µM
Oc1cccc(Nc2nc(Nc3cccc(-c4ncon4)c3)ncc2F)c1 [compound 890] | ≤ 20 µM | ≤ 20 µM
COC(=O)c1cc(Nc2ncc(F)c(Nc3cc(C(=O)OC)cc(-c4ncco4)c3)n2)cc(-c2ncco2)c1 [compound 891] | > 20 µM | > 20 µM
Fc1cnc(Nc2cc(-c3ncco3)cc(C(F)(F)F)c2)nc1Nc1cc(-c2ncco2)cc(C(F)(F)F)c1 [compound 892] | ≤ 20 µM | ≤ 20 µM
Cc1cc(Nc2ncc(F)c(Nc3ccc(N4CCN(C)CC4)c(C)c3)n2)ccc1N1CCN(C)CC1 [compound 894] | ≤ 20 µM | ≤ 20 µM
COc1cc(Nc2ncc(F)c(Nc3cc(C)cc(C)c3)n2)cc(OC)c1OC [compound 895] | ≤ 20 µM | ≤ 20 µM
Cc1cc(C)cc(Nc2nc(Nc3cc(C)c(Cl)c(Cl)c3)ncc2F)c1 [compound 896] | ≤ 20 µM | ≤ 20 µM
Cc1cc(C)cc(Nc2nc(Nc3cc(CO)cc(CO)c3)ncc2F)c1 [compound 897] | ≤ 20 µM | ≤ 20 µM
Cc1cc(C)cc(Nc2nc(Nc3cc(Cl)cc(Cl)c3)ncc2F)c1 [compound 898] | > 20 µM | > 20 µM
Cc1cc(C)cc(Nc2nc(Nc3cc(Cl)c(Cl)c(Cl)c3)ncc2F)c1 [compound 899] | ≤ 20 µM | ≤ 20 µM
Cc1cc(C)cc(Nc2nc(Nc3cc(C)c(Cl)c(C)c3)ncc2F)c1 [compound 900] | > 20 µM | > 20 µM
CNC(=O)COc1c(C)cc(Nc2ncc(F)c(Nc3cc(OC)cc(OC)c3)n2)cc1C [compound 902] | ≤ 20 µM | ≤ 20 µM
COc1cc(Nc2ncc(F)c(N(C)c3ccc(OC)c(Cl)c3)n2)cc(OC)c1 [compound 903] | ≤ 20 µM | ≤ 20 µM
COc1ccc(N(C)c2nc(Nc3cc(C)c(OC)c(Cl)c3)ncc2F)cc1Cl [compound 904] | > 20 µM | > 20 µM
CNC(=O)COc1c(C)cc(Nc2ncc(F)c(N(C)c3ccc(OC)c(Cl)c3)n2)cc1C [compound 905] | ≤ 20 µM | ≤ 20 µM
CNC(=O)COc1cccc(Nc2ncc(F)c(N(C)c3ccc(OC)c(Cl)c3)n2)c1 [compound 906] | ≤ 20 µM | ≤ 20 µM
COc1ccc(N(C)c2nc(Nc3ccc(C)cc3)ncc2F)cc1Cl [compound 907] | > 20 µM | ≤ 20 µM
COc1cc(N(C)c2nc(Nc3cc(C)cc(C)c3)ncc2F)ccc1Cl [compound 909] | ≤ 20 µM | ≤ 20 µM
CNC(=O)COc1cccc(Nc2ncc(F)c(N(C)c3ccc(Cl)c(OC)c3)n2)c1 [compound 910] | ≤ 20 µM | > 20 µM
Cc1cc(C)cc(Nc2ncc(F)c(N(C)c3cc(C)c(Cl)c(C)c3)n2)c1 [compound 912] | > 20 µM | > 20 µM
CNC(=O)COc1cccc(Nc2ncc(F)c(N(C)c3cc(C)c(Cl)c(C)c3)n2)c1 [compound 913] | ≤ 20 µM | ≤ 20 µM
Cc1cc(N(C)c2nc(Nc3cccc(-c4cnco4)c3)ncc2F)cc(C)c1Cl [compound 914] | > 20 µM | > 20 µM
CNC(=O)COc1ccc(Nc2nc(Nc3ccc(OC)c(Cl)c3)ncc2F)cc1Cl [compound 917] | ≤ 20 µM | ≤ 20 µM
